Data set [1] relates to K-562 cells. The data set can be described thus: Cytotoxic MTT assay, K-562. The settings on record: Homo sapiens, K562; K-562, MTT, 48 h, mean ± SD of two independent experiments. It is filed as cell-based. How it is done:
(§1) The cytotoxicity of compounds was evaluated against the K-562 (chronic myeloid leukemia, ATCC CCL-243) and THP-1 (acute monocytic leukemia, ATCC TIB-202) cell lines. […] For the cytotoxicity assessment, cells were planted in 96-well microplates (1 × 10^4 cells per well) containing RPMI 1640 medium (Roswell Park Memorial Institute, Cultilab, Campinas, SP, Brazil) supplemented with 10% FBS (Cultilab, Campinas, SP, Brazil), 100 U/mL penicillin, 100 μg/mL streptomycin, and 10 mM HEPES, pH 7.4. The cells were incubated in a humidified incubator at 37 °C with 5% CO2 until the assay was performed. […] After 48 h of incubation, 100 μL of MTT salt at a concentration of 0.5 mg/mL was added to each well. The plate was then incubated for 3 h. After the incubation period, the supernatant was removed, and 50 μL of DMSO was added to each well to solubilize the formazan crystals. The absorbance per well was measured at a wavelength of 550 nm using a microplate reader (Versamax, Molecular Devices, USA). The minimum concentration that inhibited 50% of cell viability (IC50) in the presence of the tested compounds was determined by comparing it with cells cultured without the compounds (considered 100% viable).
A general note: Tetrazolium dyes change colour on reduction, which living cells bring about.

Data set [2] has as its system THP-1 cells. Put plainly: Cytotoxic MTT assay, THP-1. The following applies: Homo sapiens; THP-1, MTT, 48 h, mean ± SD of two independent experiments. It is filed as cell-based. The procedure:
as §1

Data set [3] is described as follows: L929 cell viability, MTT assay (CC50). The following applies: mouse. The procedure:
(§2) The antiviral activity of isolated compounds and extracts was evaluated against the murine coronavirus MHV-3. Initially, the viability of L929 (mouse adipose fibroblasts; ATCC CCL-1) cells was assessed using the MTT (3-(4,5-dimethylthiazol-2-yl)-2,5-diphenyltetrazolium bromide (Thermo Fisher Scientific, USA) assay.[11] Cells were cultured at 37 °C and 5% CO2 in Dulbecco’s modified Eagle medium (DMEM; Cultilab, Brazil) supplemented with 5% fetal bovine serum (FBS; Cultilab, Brazil), 100 IU/mL of penicillin (Cellofarm, Brazil), 100 μg/mL of streptomycin (Merck, Germany) and 0.25 μg/mL of amphotericin B (Cultilab, Brazil). Cells were seeded in 96-well microplates (4 × 10^4 cells per well) and added 200 μL of DMEM with 1% de FBS containing the diluted compounds and extracts to be tested (100 to 1.56 μM or 200 to 3.125 μg/mL). Serial dilutions of DMSO were used as a vehicle control. Additionally, a 10% v/v inhibition control of DMSO was used. After 72 h of incubation under the same conditions, media was removed and 100 μL of MTT diluted in DMEM (0.5 mg/mL) were added to each well and incubated for 3 h. Last, media was removed, and 100 μL of DMSO were added to each well to solubilize the formazan crystals. The absorbance was read at 570 nm using a spectrophotometer (Versamax, Molecular Devices, EUA). The percentages of cell viability inhibition were calculated as the ratio between the absorbance of cells treated with the compounds relative to the vehicle control. Linear regression was used to calculate CC50 values, considering only those data for which r^2 > 0.9. The 50% cytotoxic concentration (CC50) is defined as the highest concentration of a specific compound that reduces cell viability by 50%. All conditions were tested in two independent assays in triplicate.

The test system of data set [4] is MHV-3. The data set can be described thus: Antiviral MTT assay against MHV-3 in L929 cells (EC50). It is filed as cell-based, mouse hepatitis virus 3 (murine coronavirus). The following applies: for EC50: Murine coronavirus, MHV-3 in L929 cells, MOI 0.1, MTT, NA: not active. How it is done:
as §2
Here, the same conditions as that used for CC50 were used, with the only difference being the concentrations of the samples (up to 8-fold dilution from the CC50 values for the compounds) diluted in 100 μL and added to 100 μL of viral suspension at a multiplicity of infection (MOI) of 0.1, that is, one viral particle per 10 cells in culture. Ribavirin was used as the positive control. The EC50 value was calculated as the percentage ratio between the absorbance of infected cells treated with the compounds and cells treated only with the vehicle. Last, the selectivity index (SI) was calculated using the ratio between CC50 and EC50. All conditions were tested in two independent assays in triplicate.

What is called IC50 is the midpoint of a concentration-inhibition curve. Lower therefore signals greater potency. What is called EC50 is the concentration that produces a half-maximal response. A low value points to a more potent agent. As for `CC1C(=O)CCC2C1(C)CCC1C2(C)CCC2(C)C3CC(C)(C)CCC3(CO)CC(=O)C12C` (centres unmarked) [Compound 1, 28-hydroxyfriedelane-3,15-dione], the IC50 in data set [1] came out at 259 ± 33 µM; in data set [2], 539 ± 43 µM. The CC50 at 72 h in data set [3] is greater than 100 µM. For the same molecule, the EC50 in data set [4] is 69 ± 6 µM.

Molecule `C[C@H]1C(=O)CC[C@@H]2[C@]1(C)CC[C@H]1[C@@]2(C)CC[C@@]2(C)[C@@H]3CC(C)(C)CC[C@]3(C)CC[C@]12C` [Compound 2, friedelan-3-one] returned a CC50 at 72 h in data set [3] greater than 100 µM.

In turn, `C[C@H]1[C@@H](O)CC[C@@H]2[C@]1(C)CC[C@H]1[C@@]2(C)CC[C@@]2(C)[C@@H]3CC(C)(C)CC[C@]3(C)CC[C@]12C` [Compound 3, friedelan-3β-ol] came in with a CC50 at 72 h in data set [3] greater than 100 µM.

For `C[C@H]1C(=O)CC[C@@H]2[C@]1(C)CC[C@H]1[C@@]2(C)CC[C@@]2(C)[C@@H]3CC(C)(C)CC[C@]3(C)CC(=O)[C@]12C` [Compound 4, friedelane-3,15-dione], the results for the IC50 in data set [1] and in data set [2] were 593 ± 44 µM and 350 ± 43 µM, respectively. The CC50 at 72 h in data set [3] is greater than 100 µM. Besides, the antiviral activity result in data set [4] (MHV-3, up to 100 μM) is “no antiviral activity”.

Regarding `C[C@H]1C(=O)CC[C@@H]2[C@]1(C)CC[C@H]1[C@@]2(C)CC[C@@]2(C)[C@@H]3CC(C)(C)CC[C@]3(C)C[C@H](O)[C@]12C` [Compound 5, 15α-hydroxyfriedelan-3-one], the CC50 at 72 h in data set [3] was greater than 100 µM.

As to `C[C@H]1C(=O)CC[C@@H]2[C@]1(C)CC[C@H]1[C@@]2(C)CC[C@@]2(C)[C@@H]3CC(C)(C)CC[C@]3(CO)CC[C@]12C` [Compound 6, 28-hydroxyfriedelan-3-one], the IC50 in data set [1] came out at 318 ± 41 µM; in data set [2], 623 ± 12 µM. The CC50 at 72 h in data set [3] was greater than 100 µM. For the same molecule, in data set [4] (MHV-3 antiviral activity, 6 versus 1), the “increase in activity compared to triterpene 1” value turned out to be 23 times. Further, the EC50 in data set [4] was found to be 2.9 ± 0.3 µM.

For `C[C@H]1C(=O)CC[C@@H]2[C@]1(C)CC[C@H]1[C@@]2(C)CC[C@@]2(C)[C@@H]3C[C@@](C)(CO)CC[C@]3(C)CC[C@]12C` [Compound 7, 30-hydroxyfriedelan-3-one], the IC50 in data set [1] came to 361 ± 52 µM; in data set [2] it was 385 ± 21 µM. This molecule also had a CC50 at 72 h in data set [3] greater than 100 µM.

Turning to `C[C@H]1C(=O)CC[C@@H]2[C@]1(C)CC[C@H]1[C@@]2(C)CC[C@@]2(C)[C@@H]3C[C@](C)(CO)CC[C@]3(C)CC[C@]12C` [Compound 8, 29-hydroxyfriedelan-3-one], the CC50 at 72 h in data set [3] is greater than 100 µM.

`Nc1ccn([C@@H]2O[C@H](CO)[C@@H](O)[C@@H]2O)c(=O)n1` [cytarabine, reference compound] gave an IC50 in data set [2] of 41 ± 8 µM.

Turning to `NC(=O)c1ncn([C@@H]2O[C@H](CO)[C@@H](O)[C@H]2O)n1` [ribavirin, reference compound], the CC50 at 72 h in data set [3] was greater than 100 µM. The molecule further displayed an EC50 in data set [4] of less than 10 µM.
